Measurements published in patent publication US6265418A, “N-acylamino acid amide compounds and intermediates for preparation thereof” (Ube Industries, Ltd., priority 1997, dated 2001).
Like-named read-outs stand apart in the source and are kept apart here.

How the values were obtained:
[1] = tested on: platelet aggregation induced by ADP; assay: ADP (adenosine diphosphate) induced-platelet aggregation inhibiting activity (in vitro, platelet-rich plasma); format: cell-based, human (healthy volunteer); details: ADP final concentration 10 μM, 37° C., pre-incubation 5 minutes, prime (') = converted into carboxylic acid compound before test, read-out: in vitro Platelet aggregation inhibition activity IC50
Method: ADP (adenosine diphosphate) induced-platelet aggregation inhibiting activity
(1) Preparation Method of Platelet-rich Plasma
By using 0.1 volume of 3.8% sodium citrate as an anticoagulant, citrate-added blood collected from an elbow vein of a healthy volunteer was centrifuged at 500×g (=1600 rpm) for 3 minutes and the supernatant was fractionated as platelet-rich plasma (PRP). The under layer was further centrifuged at 1800×g (3200 rpm) for 15 minutes and the supernatant was fractionated as platelet-poor blood plasma (PPP) and used for ADP aggregation (coagulation) measurement.
(2) Measurement Method of ADP-induced Platelet Aggregation
PRP obtained as mentioned above was diluted by the platelet-poor plasma (PPP) to adjust the number of platelet to 30 to 40×10^4 /μL, and platelet aggregation induced by ADP was measured by using an aggrigometer (available from NBS Co., Hematracer Va.). First, 185 μL of PRP was placed in a glass cuvette for exclusive use, 5 μL of a test compound solution or a solvent (control) for preparing test compound was added thereto, and the mixture was pre-incubated while stirring (1000 ppm) at 37° C. for 5 minutes. Thereafter, 10 μL (final concentration 10 μM) of an ADP solution was added thereto to induce platelet aggregation. Change in transmittance caused by platelet aggregation was recorded for 3 minutes after addition of ADP.
Transmittances of PRP and PPP were made 0 and 100%, respectively, and the maximum transmittance after adding ADP was made the maximum aggregation ratio. The maximum aggregation ratio when the test compound was added divided by that ratio when the solvent for preparation was added was shown in terms of a percentage, and a 50% inhibiting concentration (IC50) was calculated.
Incidentally, when the test compound has a protected carboxyl group, the sample was applied to the test after carrying out the following deprotection treatment. First, the test compound was dissolved in ethanol, and hydrolyzed (at room temperature for 2 hours) by adding an equal volume of a 0.1 N aqueous sodium hydroxide solution. Then, the solution was neutralized by adding a 0.1 N aqueous hydrochloric acid solution, and the resulting solution was diluted by using a preparation solvent (composition: ethanol/0.1 N aqueous sodium hydroxide solution/0.1 N aqueous hydrochloric acid solution=1/1/1) to a predetermined concentration to make a test compound solution.

[2] = tested on: platelet aggregation induced by ADP; assay: Ex vivo ADP induced-platelet aggregation inhibiting activity after oral administration to monkeys; format: in vivo; details: cynomolgus monkeys, ADP 20 μM
From the text: (§1) Ex Vivo ADP Induced-platelet Aggregation Inhibiting Activity
As a test animal, 2 to 3 monkeys (cynomolgus monkeys) born in China were used as one group.
(§2) Test compounds were suspended in a dimethylsulfoxide: 0.5% aqueous sodium carboxymethylcellulose solution (=1:99) and orally administered. To the animals for control group, a dimethylsulfoxide: 0.5% aqueous sodium carboxymethylcellulose solution (=1:99) containing no test compound was orally administered.
With regard to the respective groups, 5 ml of blood was each collected from femoral vein at the predetermined times before and after administration of the test compound by using a syringe to which 3.8% of sodium citrate was added. The resulting citrate-added blood was centrifuged at 80×g (=700 rpm) for 10 minutes, and then, the supernatant was fractionated as platelet rich plasma (PRP). The under layer was further centrifuged at 2000×g (3200 rpm) for 10 minutes and the supernatant was fractionated as platelet-poor plasma (PPP) and used for ADP aggregation (coagulation) measurement.
(§3) PRP was diluted by PPP to adjust the number of platelet to 30 to 40×10^4 /μL, and platelet aggregation induced by ADP was measured by using a nephelometric platelet aggregation meter (available from NBS Co., Hematracer 801). First, 190 μL of PRP was placed in a glass cuvette for exclusive use and pre-incubated while stirring (1000 ppm) at 37° C. for 5 minutes. Thereafter, 10 μL (final concentration 20 μM) of an ADP solution was added thereto to induce platelet aggregation. Change in transmittance caused by platelet aggregation was recorded for 3 minutes after addition of ADP.
(§4) Transmittances of PRP and PPP were made 0 and 100%, respectively, and the maximum transmittance after adding ADP was made the maximum aggregation ratio.
(§5) The platelet aggregation inhibiting ratio was shown in terms of a percentage of the maximum aggregation ratio when the test compound was added divided by the maximum aggregation ratio when the solvent for preparation was added.

[3] = tested on: platelet aggregation induced by ADP and epinephrine; assay: Ex vivo ADP induced-platelet aggregation inhibiting activity after oral administration to dogs; format: in vivo; details: beagle dogs, ADP 10 μM + epinephrine 1 μM
Method: as §1
As a test animal, 2 to 3 beagle dogs were used as one group.
as §2
With regard to the respective groups, 5 ml of blood was each collected from cervical vein at the predetermined times before and after administration of the test compound by using a syringe to which 3.8% of sodium citrate was added. The resulting citrate-added blood was centrifuged at 80×g (=700 rpm) for 10 minutes, and then, the supernatant was fractionated as platelet-rich plasma (PRP). The under layer was further centrifuged at 2000×g (3200 rpm) for 10 minutes and the supernatant was fractionated as platelet-poor plasma (PPP) and used for ADP aggregation (coagulation) measurement.
as §3, with “an aggrigometer” for “a nephelometric platelet aggregation meter”, “μL” for “μL (final concentration 20 μM)”, “solution (final concentration 10 μM) and an epinephrine solution (final concentration 1 μM)” for “solution”
as §4, §5

platelet aggregation = details: reported in Thrombosys, Res., 56, 6, 687 (1989); cited from earlier work
fibrinogen receptor = details: reported in Thrombosys, Res., 56, 6, 687 (1989); cited from earlier work

N=C(N)c1ccc(C(=O)N[C@@H](Cc2ccc([N+](=O)[O-])cc2)C(=O)N2CCc3sc(CC(=O)O)cc3C2)cc1 [Example I-5, 5-[N-(4-amidinobenzoyl)-L-4-nitrophenylalanyl]-4,5,6,7-tetrahydrothieno[3,2-c]pyridin-2-acetic acid.trifluoroacetate]
IC50 ([1]; Homo sapiens, Platelet): 30 nM

CCOC(=O)Cn1cc2c(n1)CCN(C(=O)[C@H](Cc1ccc([N+](=O)[O-])cc1)NC(=O)c1ccc(C(=N)N)cc1)C2 [Example I-76, Ethyl 5-[N-(4-amidinobenzoyl)-L-4-nitrophenylalanyl]-4,5,6,7-tetrahydropyrazolo[4,3-c]pyridin-2-acetate.trifluoroacetate]
platelet aggregation inhibiting activities even in oral administration [2]: excellent platelet aggregation inhibiting activities
sustained activity [2]: excellent sustained activity

CCOC(=O)Cn1cc2c(n1)CCN(C(=O)[C@H](Cc1ccc([N+](=O)[O-])cc1)NC(=O)c1ccc(C(=N)NC(=O)OCC)cc1)C2 [Example I-77, Ethyl 5-[N-[4-(N-ethoxycarbonylamidino)benzoyl]-L-4-nitrophenylalanyl]-4,5,6,7-tetrahydropyrazolo[4,3-c]pyridin-2-acetate]
ex vivo Platelet aggregation inhibiting ratio ([3]; 1 mg/kg p.o., 1 hr): 60%
ex vivo Platelet aggregation inhibiting ratio ([3]; 1 mg/kg p.o., 4 hr): 85%
ex vivo Platelet aggregation inhibiting ratio ([3]; 1 mg/kg p.o., 8 hr): 63%
platelet aggregation inhibiting activities even in oral administration [2]: excellent platelet aggregation inhibiting activities
sustained activity [2]: excellent sustained activity

N=C(N)c1ccc(C(=O)N[C@@H](Cc2ccc([N+](=O)[O-])cc2)C(=O)N2CCc3nn(CC(=O)O)cc3C2)cc1 [Example I-79, 5-[N-(4-amidinobenzoyl)-L-4-nitrophenylalanyl]-4,5,6,7-tetrahydropyrazolo[4,3-c]pyridin-2-acetic acid.trifluoroacetate]
IC50 ([1]; Homo sapiens, Platelet): 20 nM

CCOC(=O)Cn1cc2c(n1)CCN(C(=O)[C@H](Cc1ccc([N+](=O)[O-])cc1)NC(=O)c1ccc(C(=N)NO)cc1)C2 [Example I-85, Ethyl 5-[N-[4-(N-hydroxyamidino)benzoyl]-L-4-nitrophenylalanyl]-4,5,6,7-tetrahydropyrazolo[4,3-c]pyridin-2-acetate]
ex vivo Platelet aggregation inhibiting ratio ([3]; 0.3 mg/kg p.o., 1 hr): 61%
ex vivo Platelet aggregation inhibiting ratio ([3]; 0.3 mg/kg p.o., 4 hr): 94%
ex vivo Platelet aggregation inhibiting ratio ([3]; 0.3 mg/kg p.o., 8 hr): 41%

N=C(N)c1ccc(C(=O)N[C@@H](Cc2ccc([N+](=O)[O-])cc2)C(=O)N2C3CCC2c2cn(CC(=O)O)nc2C3)cc1 (stereo partly drawn) [Example I-91, 5-[N-(4-amidinobenzoyl)-L-4-nitrophenylalanyl]-4,6-ethano-4,5,6,7-tetrahydropyrazolo[4,3-c]pyridin-2-acetic acid]
IC50 ([1]; Homo sapiens, Platelet): 50 nM

CCOC(=O)Cn1cc2c(n1)CCN(C(=O)[C@H](Cc1ccc([N+](=O)[O-])cc1)NC(=O)c1ccc(C(=N)NC(=O)Oc3ccccc3)cc1)C2 [Example I-115, Ethyl 5-[N-[4-(N-phenoxycarbonylamidino)benzoyl]-L-4-nitrophenylalanyl)-4,5,6,7-tetrahydropyrazolo[4,3-c]pyridin-2-acetate]
ex vivo Platelet aggregation inhibiting ratio ([3]; 0.3 mg/kg p.o., 1 hr): 35%
ex vivo Platelet aggregation inhibiting ratio ([3]; 0.3 mg/kg p.o., 4 hr): 43%
ex vivo Platelet aggregation inhibiting ratio ([3]; 0.3 mg/kg p.o., 8 hr): 22%

C[C@H](NC(=O)c1ccc(C(=N)N)cc1)C(=O)N1CCc2nn(CC(=O)O)cc2C1 [Example I-126, 5-[N-(4-amidinobenzoyl)-L-alanyl]-4,5,6,7-tetrahydropyrazolo[4,3-c]pyridin-2-acetic acid.trifluoroacetate]
IC50 ([1]; Homo sapiens, Platelet): 80 nM

N=C(N)c1ccc(C(=O)N[C@@H](Cc2ccccc2)C(=O)N2CCc3nn(CC(=O)O)cc3C2)cc1 [Example I-128, 5-[N-(4-amidinobenzoyl)-L-phenylalanyl]-4,5,6,7-tetrahydropyrazolo[4,3-c]pyridin-2-acetic acid.trifluoroacetate]
IC50 ([1]; Homo sapiens, Platelet): 50 nM

CN(C(=O)c1ccc(C(=N)N)cc1)[C@@H](Cc1ccc([N+](=O)[O-])cc1)C(=O)N1CCc2nn(CC(=O)O)cc2C1 [Example I-136, 5-[N-(4-amidinobenzoyl)-N-methyl-L-4-nitrophenylalanyl)-4,5,6,7-tetrahydropyrazolo[4,3-c]pyridin-2-acetic acid.trifluoroacetate]
IC50 ([1]; Homo sapiens, Platelet): 60 nM

N=C(N)c1ccc(C(=O)N[C@@H](Cc2ccc(OCc3ccccc3)cc2)C(=O)N2CCc3nn(CC(=O)O)cc3C2)cc1 [Example I-138, 5-[N-(4-amidinobenzoyl)-L-O-benzyltyrosyl)-4,5,6,7-tetrahydropyrazolo[4,3-c]pyridin-2-acetic acid.trifluoroacetate]
IC50 ([1]; Homo sapiens, Platelet): 60 nM

Arg-Gly-Asp-Ser (RGDS; printed: Arg-Gly-Asp-Ser) [peptide derivative such as Arg-Gly-Asp-Ser (hereinafter abbreviated to as RGDS)]
IC50 [1]: 4000 nM
platelet aggregation inhibiting action (platelet aggregation): platelet aggregation inhibiting action
antagonistic action against a fibrinogen receptor (fibrinogen receptor): antagonistic action against a fibrinogen receptor
